# Data: US11077109B2, “Compounds having antibacterial activity and methods of use” (The Trustees of Princeton University, priority 2017, dated 2021)
# Counter-ions that a name gives are not always drawn.
# What was measured:
# [1] = system: E. coli MC4100 imp4213 (imp) strain; test: MIC of lead compounds on the imp strain, microdilution method in 96-well plates; type: cell-based
# Excerpt: With the aim of finding antibiotics with novel MOAs, an unbiased whole-cell screening approach was applied. To include antibiotics that target either gram-negative and gram-positive bacteria, compounds were screened that inhibited growth of the E. coli MC4100 imp4213 (imp) strain, which has a compromised OM that makes it permeable to antibiotics that would otherwise not penetrate the gram-negative lipolysaccheride (LPS). […] unique compounds spanning 5 libraries were screened, with 32,343 compounds represented once, 923 duplicates, 114 triplicates, 12 quadruplicates and 2 compounds represented five times, all at the concentration of 50 uM in DMSO.
# From the 186 unique hits, 32 lead compounds were selected that either had not been identified as antibiotics or had unknown or ambiguous MOAs for further investigation. To understand the potency of these compounds, their minimum inhibitory concentration (MIC) was measured on the imp strain using the microdilution method in 96-well plates.
# [2] = system: Cpx envelope stress response (cpxP); test: cpxP expression (Cpx envelope stress response activation); type: cell-based, E. coli MC4100 wild type; conditions: drug at one to one-half the MIC (AGAs and chloramphenicol 5 μg/ml, triflupromazine 50 μg/ml)
# Excerpt: Thus, that the three AGAs fell into a distinct neighborhood not similar to the other ribosome-targeting antibiotics was unsurprising.
# [3] = system: Neisseria gonorrhoeae CCUG57598; test: MIC against panel of clinically important pathogens: N. gonorrhoeae; type: cell-based; conditions: read-out: MIC (inhibiting concentration), N. gonorrhoeae
# Experimental: (§1) In an effort to understand how effective these 8, possibly novel, antibiotics might be in treating infections, their MICs against a panel of 22 clinically important pathogens shown in Table II were measured. In addition, the MICs of 3 other compounds of interest, rivaroxaban, AZT, and triflupromazine, were measured which were associated with specific drug classes. Of particular interest, ONO-RS-82 inhibited C. difficile and N. gonorrhoeae with at concentrations of 2 μg/ml and 0.25 μg/ml respectively.
# [4] = system: Clostridium difficile ATCC BAA-1875; test: MIC against panel of clinically important pathogens: C. difficile; type: cell-based; conditions: Clostridioides difficile, ATCCBAA1875, read-out: MIC (inhibiting concentration), C. difficile
# Experimental: as §1
# [5] = system: methicillin resistant S. aureus (NARSA NRS384); test: MIC against panel of clinically important pathogens: methicillin resistant S. aureus; type: cell-based; conditions: Staphylococcus aureus, read-out: MIC (inhibiting concentration), methicillin resistant S. aureus
# Experimental: as §1
# [6] = system: Enterococcus faecium ATCC BAA-2320; test: MIC against panel of clinically important pathogens: E. faecium; type: cell-based; conditions: ATCCBAA2320, read-out: MIC (inhibiting concentration), E. faecium
# Experimental: as §1
# [7] = system: folate metabolites in NCM 3722 E. coli cells; test: Metabolomics and mass spectrometry of folate metabolites; type: cell-based
# ΔthyA lptD4213 cells = test: Susceptibility of ΔthyA cells; type: cell-based, E. coli; conditions: supplemented with exogenous Thymine
# Experimental: To test this hypothesis, the membrane potential and membrane permeability of lptD4213 cells were measured using the fluorescent dyes, DIOC2(3) and TO-PRO-3, and flow cytometry. DIOC2(3) is a cationic dye that accumulates in the cytoplasm of cells with an active membrane potential and shifts its fluorescence from red to green. The dye also stains the membrane of the cells in green and as a result the ratio of the red to green signals can provide a morphology and size independent measure of membrane potential (FIG. 14B). TO-PRO-3 is a nucleic acid stain that only stains cells with compromised membranes (FIG. 14B).
# [8] = system: B. subtilis essential gene knockdown library (folC, folA); type: cell-based
# Excerpt: The classical method of identifying the molecular target of an antibiotic is by selecting for antibiotic resistant mutants. However, SCH resistant mutants were not easily identified. A potential reason for this may be that SCH has multiple targets. To probe this hypothesis, a B. subtilis essential gene knockdown library was screened to select for strains that were sensitized to SCH (FIG. 12A). This library consists of ˜300 individual strains where the expression of each essential gene is repressed 3-fold by CRISPR interference (CRISPRi). This library was pinned onto agar plates containing a sub-MIC dose of SCH and the relative fitness of each gene was measured (FIG. 12A). […]
# NCM 3722 E. coli cells = test: MIC on NCM 3722 E. coli; type: cell-based; conditions: NCM 3722 cells, Gutnick Minimal Media
# [9] = E. coli MC4100 imp4213 (imp) strain, microdilution
molecule,measurement,setting,value
"O=S(=O)(NCCNCC=Cc1ccc(Br)cc1)c1cccc2cnccc12 [H 89 dihydrochloride, N-[2-(p-Bromocinnamylamino)ethyl]-5-isoquinolinesulfonamide dihydrochloride]",MIC,[1]; Escherichia coli,12.5 µM
CN[C@@H]1[C@@H](O[C@H]2O[C@H](CO)[C@@H](N)[C@H](O)[C@H]2O)OC2C[C@@H](N)[C@@H](O[C@H]3[C@H](O)[C@@H](O)[C@H](N)C[C@@H]3N)OC2[C@@H]1O (stereo partly shown) [apramycin],cpxP expression,[2],induced cpxP expression
COc1cccc(C2(O)CCCCC2CN(C)C)c1 (stereo not shown) [Tramadol hydrochloride],MIC,[1]; Escherichia coli,6.25 µM
O=C(N[C@H](CO)[C@H](O)c1ccc([N+](=O)[O-])cc1)C(Cl)Cl [chloramphenicol],cpxP expression,[2],did not
CCCCC(CC)CNC(=N)NC(=N)NCCCCCCNC(=N)NC(=N)NCC(CC)CCCC (stereo not shown) [Alexidine hydrochloride],MIC,[1]; Escherichia coli,12.5 µM
"CCCCCc1ccc(C=CC(=O)Nc2cc(Cl)ccc2C(=O)O)cc1 [ONO-RS-082, 2-(p-amylcinnamoyl)amino-4-chlorobenzoic acid]",MIC,[1]; Escherichia coli,3.12 µM
same,MIC,[3],0.25 µg/mL
same,MIC,[4],2 µg/mL
Oc1ccc(Cl)cc1Cc1cc(Cl)ccc1O [Dichlorophen],MIC,[1]; Escherichia coli,12.5 µM
Bleomycin,MIC,[1]; [9],0.1 µM
Cc1nc2ccccc2n1Cc1ccc(Cl)cc1 [Chlormidazole],MIC,[1]; Escherichia coli,25 µM
"CN(C)CCCN1c2ccccc2Sc2ccc(C(F)(F)F)cc21 [Triflupromazine, N,N-dimethyl-3-[2-(trifluoromethyl)phenothiazin-10-yl]propan-1-amine]",MIC,[1]; Escherichia coli,25 µM
same,cpxP expression,[2],induced cpxP expression
"Clc1ccc(C(c2ccc(Cl)cc2)n2cc[n+](CC(OCc3ccc(Cl)cc3Cl)c3ccc(Cl)cc3Cl)c2)cc1.[Cl-] (stereo not shown) [Calmidazolium chloride, 1-[bis(4-Chlorophenyl)methyl]-3-[2-(2,4-dichlorophenyl)-2-(2,4-dichlorobenzyloxy)ethyl]-1H-imidazolium chloride]",MIC,[5],< 1 µg/mL
same,MIC,[1]; Escherichia coli,3.12 µM
same,MIC,[6],< 1 µg/mL
same,MIC,[3],< 1 µg/mL
"O=C(NC[C@H]1CN(c2ccc(N3CCOCC3=O)cc2)C(=O)O1)c1ccc(Cl)s1 [Rivaroxaban, (S)-5-Chloro-N-((2-oxo-3-(4-(3-oxomorpholino)phenyl)oxazolidin-5-yl)methyl)thiophene-2-carboxamide]",MIC,[1]; Escherichia coli,0.05 µM
"CC[n+]1c(C=CC=C2N(C)c3ccccc3C2(C)C)sc2ccccc21 [AC-93253 iodide, 2-[3-(1,3-dihydro-1,3,3-trimethyl-2H-indol-2-ylidene)-1-propenyl]-3-ethyl-benzothiazolium iodide]",MIC,[1]; Escherichia coli,6.25 µM
gentamicin,cpxP expression,[2],induced cpxP expression
O=c1[nH]c(=O)n([C@H]2C[C@H](O)[C@@H](CO)O2)cc1F [Floxuridine],MIC,[1]; Escherichia coli,6.25 µM
O=[N+]([O-])C(Br)(CO)CO [Bronopol],MIC,[1]; Escherichia coli,25 µM
COc1cc(Cc2cnc(N)nc2N)cc(OC)c1OC [Trimethoprim],metabolic response characteristic of FolA inhibition,[7]; NCM 3722 cells,also observed
same,susceptibility of ΔthyA lptD4213 cells,ΔthyA lptD4213 cells,resistant to high levels
same,sensitivity of dihydrofolate reductase (folA) knockdown,[8]; sub-MIC / sub-lethal dose,sensitized
same,sensitivity of dihydrofolate synthetase (folC) knockdown,"[8]; sub-MIC / sub-lethal dose on agar, confirmed in liquid",sensitized
"O=C1Nc2ccc(I)cc2C1=Cc1cc(Br)c(O)c(Br)c1 [GW5074, 3-(3,5-dibromo-4-hydroxybenzyliden)-5-iodo-1,3-dihydroindol-2-one]",MIC,[1]; Escherichia coli,6.25 µM
CCCCCCCCCCCCCCC[C@H](O)[C@H](N)CO (racemic) [DL-erythro-dihydrosphingosine],MIC,[1]; [9],12.5 µM
CC(=O)OC[C@H]1O[C@@H]([S-])[C@H](OC(C)=O)[C@@H](OC(C)=O)[C@@H]1OC(C)=O.CCP(CC)CC.[Au+] [Auranofin],MIC,[1]; [9],6.25 µM
CC[n+]1c(-c2ccccc2)c2cc(N)ccc2c2ccc(N)cc21 [Homidium bromide],MIC,[1]; Escherichia coli,25 µM
"CC(C)c1ccc(Cn2ccc3c4c(N)nc(NC5CC5)nc4ccc32)cc1 [SCH 79797, N3-Cyclopropyl-7-[[4-(1-methylethyl)phenyl]methyl]-7H-pyrrolo[3,2-F]quinazoline-1,3-diamine dihydrochloride]",dihydrofolate (DHF) levels versus normal DHF levels,[7]; 1× MIC for 15 minutes,approximately 10 fold
same,MIC,[1]; Escherichia coli,25 µM
same,MIC (1× MIC),NCM 3722 E. coli cells,31.25 µM
CC(=O)[C@]1(O)Cc2c(O)c3c(c(O)c2[C@@H](O[C@H]2C[C@H](N)[C@H](O)[C@H](C)O2)C1)C(=O)c1ccccc1C3=O [Idarubicin],MIC,[1]; Escherichia coli,25 µM
